Data set [1] concerns Human Induced Pluripotent Stem Cell (hiPSC)-Derived Cardiomyocytes.
For a further data set, the system named is hiPSC-CMs. Description: Extracellular lactate dehydrogenase. Type of data set: cell-based, human. The settings on record: 48-hour treatment.
The subject of data set [2] is ARPE-19 human retinal cells. As to the kind of experiment: MTS cell growth assay. Type of data set: cell-based. The settings on record: read-out: IC50 (cell growth).
In a further data set the test system is hiPSC-CM cell monolayer. As to the kind of experiment: Cell health index: cardiomyocyte cell monolayer assessment. It counts as cell-based, human.
For data set [3] the following is noted: cited from earlier work.

Where two headings read alike, the source gives them in different places. A value given as a limit tells only on which side of the number the result lay.

Take `C=CCNC1=C2C[C@@H](C)C[C@H](OC)[C@H](O)[C@@H](C)/C=C(\C)[C@H](OC(N)=O)[C@@H](OC)/C=C\C=C(/C)C(=O)NC(=CC1=O)C2=O` [17-AAG]: the quiescence was 1/8 in data set [1] (0.25 µM, 48 h); 1/8 in data set [1] (2.5 µM, 24 h); 6/8 in data set [1] (2.5 µM, 48 h); 8/8 in data set [1] (10 µM, 24 h); 8/8 in data set [1] (10 µM, 48 h); 8/8 in data set [1] (50 µM, 24 h). Also, in data set [1] (50 µM, 48 h), the quiescence is reported as 8/8. In addition, in data set [1] (24 h), the “cardiomyocyte function / cardio-toxicity (in words)” value was “severe dysregulation of cardiomyocyte function”. For the same molecule, the “extracellular LDH (in words)” value with hiPSC-CMs is on record as “highly dose-dependently toxic”. For the same molecule, the IC50 in data set [2] (ARPE-19, 48 hr, MTS, Avg ± SD, N = 3 biological replicates) is 20 nM.
Regarding `COc1cccc2c1C(=O)c1c(O)c3c(c(O)c1C2=O)C[C@@](O)(C(=O)CO)C[C@@H]3O[C@H]1C[C@H](N)[C@H](O)[C@H](C)O1` [Doxorubicin], the electrical quiescence in data set [1] (0.3 µM, 30 min) is listed as 1/8. For the same molecule, the “cardiomyocyte function / cardio-toxicity (in words)” value in data set [1] (24 h) is on record as “largely had no effect on electrophysiology”. For the same molecule, in the data set on hiPSC-CM cell monolayer, the “effect on the cell monolayer (in words)” value was “greater monolayer damage at both 24 and 48 h”.
With `CCNC(=O)c1noc(-c2cc(C(C)C)c(O)cc2O)c1-c1ccc(CN2CCOCC2)cc1` [NVP AUY922], the IC50 in data set [2] (Homo sapiens, ARPE-19, 48 h) was less than 10 nM.
For `CCc1cc(C(N)=O)ccc1-n1nc(C(C)C)c2c(-n3cnc(-c4cnn(C)c4)c3)ccnc21` [TAS-116], the “ocular toxicities in vivo” value in data set [3] is “avoid any ocular toxicities in vivo”. Further, the IC50 in data set [2] (Homo sapiens, ARPE-19, 48 h) was determined as 444 nM.

The values are drawn from paper PMC11779861 (Scientific Reports, 2025).
